Reference: patent US11970451B1, “6-(3-hydroxyphenyl)-2-methoxy-4-(3-methylphenyl)nicotinonitrile as an antimicrobial compound” (KING FAISAL UNIVERSITY, priority 2023, dated 2024)

Legend:
[1] = tested on: Escherichia coli; assay: Antimicrobial screening by agar dilution; type: cell-based; details: after 10, 20, 40 and 60 minutes at all dilutions 1:100, 1:200, 1:400, 1:800
Method: (§1) The antibacterial properties of the synthesized compound 6-(3-hydroxyphenyl)-2-methoxy-4-(3-methylphenyl)nicotinonitrile were studied by the method of agar dilution. Test solutions of each compound was prepared in concentration of 1% using dimethylformamide as a solvent then they are diluted in physiological solution to obtain the final experimental dilutions 1:100, 1:200, 1:400, 1:800. The effects of these substances are compared with furacillin in a controllable study. The testing microbes used were gram positive bacteria Staphylococcus aureus, gram negative bacteria Pseudomonas aeruginosa and Escherichia coli and Candida albicans fungus. The experiments used for this survey were meat-pentonlu agar (EPA) for cultivation of bacteria and Saburo environment for the fungus. Each experiment used 1 mL of test solution on each plate […]. Two drops of emulsified with microbes feel were added. All experimental samples were taken from the agar after 10, 20, 40, 60 minutes in the environment on the basis of Patrk planted. The bacteria were cultivated at a temperature of 37° C. for 1 day and the mushroom was kept in a thermostat for […] at a temperature of 28° C. Then results were checked.

[2] = tested on: Pseudomonas aeruginosa; assay: Antimicrobial screening by agar dilution; type: cell-based; details: after 10, 20, 40 and 60 minutes at all dilutions 1:100, 1:200, 1:400, 1:800
Method: as §1

[3] = tested on: Candida albicans; assay: Antimicrobial screening by agar dilution; type: cell-based; details: after 10, 20, 40 and 60 minutes at all dilutions 1:100, 1:200, 1:400, 1:800
Method: as §1

[4] = tested on: Staphylococcus aureus; assay: Antimicrobial screening by agar dilution; type: cell-based; details: after 10, 20, 40 and 60 minutes at all dilutions 1:100, 1:200, 1:400, 1:800
Method: as §1

melting point: 205 to 207 °C
Compound: COc1nc(-c2cccc(O)c2)cc(-c2cccc(C)c2)c1C#N [6-(3-hydroxyphenyl)-2-methoxy-4-(3-methylphenyl)nicotinonitrile]
inhibition activity (in words) [1]: highest inhibition activity
inhibition activity (in words) [2]: highest inhibition activity
inhibition activity (in words) [3]: highest inhibition activity
inhibition activity (in words) [4]: highest inhibition activity
